# Biological target: full-length human PRMT6 (Flag- and His-tagged) (Homo sapiens, UniProt Q96LA8)
# Assay: PRMT6 biochemical assay (3H-SAM Flashplate, histone H4 36-50 K44me1 peptide)
# Details: 1 nM PRMT6, 30 min preincubation, 75 nM peptide
# Outline: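 Flag/His-tagged full-length PRMT6 (1 nM) pre-incubated 30 min RT with compound in 20 mM Bicine pH 7.6, then given 200 nM 3H-SAM, 250 nM cold SAM and 75 nM biotinylated H4 36-50 K44me1 peptide. Methylated peptide captured on streptavidin Flashplates and counted; % inhibition versus DMSO and 1 mM SAH controls, fitted to 3- or 4-parameter curves.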
# full-length human PRMT6 (Flag- and His-tagged), sequence (Q96LA8 with tags, fused parts or gaps): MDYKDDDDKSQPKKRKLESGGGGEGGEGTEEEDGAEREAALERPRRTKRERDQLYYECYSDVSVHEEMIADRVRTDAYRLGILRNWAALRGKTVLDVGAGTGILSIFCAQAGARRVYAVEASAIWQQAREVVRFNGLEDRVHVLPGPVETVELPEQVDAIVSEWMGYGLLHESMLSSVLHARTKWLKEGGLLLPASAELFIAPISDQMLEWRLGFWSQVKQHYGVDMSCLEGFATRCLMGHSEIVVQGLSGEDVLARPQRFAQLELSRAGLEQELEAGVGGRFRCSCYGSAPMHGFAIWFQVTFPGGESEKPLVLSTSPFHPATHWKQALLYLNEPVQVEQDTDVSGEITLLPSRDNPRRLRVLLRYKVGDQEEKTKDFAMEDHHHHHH
row,IC50 [nM],Structure (SMILES)
1,59.7,"CNCCN(C)Cc1c[nH]nc1C1=CCC2(CC1)CC(C)(C)CO2 (stereo not drawn) [compound 46, N1-((3-(3,3-dimethyl-1-oxaspiro[4.5]dec-7-en-8-yl)-1H-pyrazol-4-yl)methyl)-N1,N2-dimethylethane-1,2-diamine]"
2,15.8,"CCC1(CC)C[C@]2(CC[C@H](c3n[nH]cc3CN(C)CCNC)CC2)NC1=O [compound 47, (5s,8s)-3,3-diethyl-8-(4-((methyl(2-(methylamino)ethyl)amino)methyl)-1H-pyrazol-3-yl)-1-azaspiro[4.5]decan-2-one]"
3,73.6,"CCC1(CC)C[C@]2(CC[C@@H](c3n[nH]cc3CN(C)CCNC)CC2)NC1=O [compound 48, (5r,8r)-3,3-diethyl-8-(4-((methyl(2-(methylamino)ethyl)amino)methyl)-1H-pyrazol-3-yl)-1-azaspiro[4.5]decan-2-one]"
4,128,"CNCCN(C)Cc1ccnn1[C@H]1CC[C@@]2(CC1)CC(C)(C)CO2 [compound 49, N1-((1-((5s,8s)-3,3-dimethyl-1-oxaspiro[4.5]decan-8-yl)-1H-pyrazol-5-yl)methyl)-N1,N2-dimethylethane-1,2-diamine]"

# Continued, molecule first:
row,Structure (SMILES),IC50 [nM]
1,CC[C@H]1CC[C@@H](c2n[nH]cc2CN(C)CCNC)CC1 [compound 1],10.2
2,"CCOCCOCC1(COCCOCC)CCC(c2n[nH]cc2CN(C)CCNC)CC1 [compound 39, N1-((3-(4,4-bis((2-ethoxyethoxy)methyl)cyclohexyl)-1H-pyrazol-4-yl)methyl)-N1,N2-dimethylethane-1,2-diamine]",42
3,CNCCN(C)Cc1c[nH]nc1C1CCC(COCCC2CCOCC2)(COCCC2CCOCC2)CC1 [compound 40],37.4
4,"CNCCN(C)Cc1c[nH]nc1C1CCC(COCC2CC2)(COCC2CC2)CC1 [compound 41, N1-((3-(4,4-bis((cyclopropylmethoxy)methyl)cyclohexyl)-1H-pyrazol-4-yl)methyl)-N1,N2-dimethylethane-1,2-diamine]",6.94
5,"CN(C)CCN(C)Cc1c[nH]nc1[C@H]1CC[C@@]2(CC1)CC(C)(C)CO2 [compound 42, N1-((3-((5S,8S)-3,3-dimethyl-1-oxaspiro[4.5]decan-8-yl)-1H-pyrazol-4-yl)methyl)-N1,N2,N2-trimethylethane-1,2-diamine]",90.9
6,"CN(C)CCN(C)Cc1c[nH]nc1[C@H]1CC[C@]2(CC1)CC(C)(C)CO2 [compound 43, N1-((3-((5r,8r)-3,3-dimethyl-1-oxaspiro[4.5]decan-8-yl)-1H-pyrazol-4-yl)methyl)-N1,N2,N2-trimethylethane-1,2-diamine]",288
7,"CNCCN(C)Cc1c[nH]nc1C1CCC(CO)(CO)CC1 [compound 44, (4-(4-((methyl(2-(methylamino)ethyl)amino)methyl)-1H-pyrazol-3-yl)cyclohexane-1,1-diyl)dimethanol]",21.5
8,CNCCN(C)Cc1c[nH]nc1C1CCC(COC)(COCC2CCOCC2)CC1 (stereo not drawn) [compound 45],53.7
